Assay results as given in paper PMC4579270, “Identification and Characterization of an Irreversible Inhibitor of CDK2” (Chemistry & Biology, 2015).

Columns and labels:
Experiment in all cases: Dundee protein kinase screen
Format in all cases: biochemical
CHK1 = target: T1, CHK1 (Homo sapiens, UniProt O14757); conditions: CHK1, 1µM; read-out: %Remaining activity at 1µM NU6300
T1 sequence (O14757 1-476): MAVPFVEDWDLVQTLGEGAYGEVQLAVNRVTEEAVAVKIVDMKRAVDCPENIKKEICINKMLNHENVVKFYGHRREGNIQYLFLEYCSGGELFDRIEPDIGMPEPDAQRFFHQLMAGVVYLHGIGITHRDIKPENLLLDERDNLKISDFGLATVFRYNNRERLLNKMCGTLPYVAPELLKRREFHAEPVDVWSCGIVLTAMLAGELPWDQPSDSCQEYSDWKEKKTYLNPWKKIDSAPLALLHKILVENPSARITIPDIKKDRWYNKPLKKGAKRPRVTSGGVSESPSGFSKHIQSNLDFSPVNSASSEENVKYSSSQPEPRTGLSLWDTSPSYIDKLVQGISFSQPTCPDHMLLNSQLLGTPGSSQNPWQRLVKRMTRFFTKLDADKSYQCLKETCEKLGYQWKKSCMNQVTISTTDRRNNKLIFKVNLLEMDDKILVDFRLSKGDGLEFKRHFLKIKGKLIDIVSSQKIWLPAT
Description: (§1) Prior to determining its cellular activity, we carried out a screen to assess its selectivity against a panel of 131 protein kinases under conditions that would not distinguish between a reversible or irreversible mode of action. […] These 13 kinases and 29 additional kinases, selected for their known sensitivity to other inhibitors within the purine series, were then tested in a modified screening format in which the assay was repeated following a 4-hr pre-incubation (Table S3B). […] However, conformational flexibility around the active site may promote such an interaction with a residue from another part of the structure ([Martin et al., 2012]).
(§2) Table S3, Related to Figure 4. NCL-0006300 protein kinase selectivity. (A) NU6300 was tested at a single concentration of 1µM against 131 protein kinases present in a Dundee protein kinase screen (Bain et al., 2007). Values given are % activity remaining and are the average of duplicate measurements: 0-25% (red), 26-50% (yellow), 51-80% (black) and above 81% (green). The kinase domain sequences (as defined by UniProt) of […]
(§3) have a lysine residue at a position close to CDK2 Lys88 or Lys89. However, in the structure of tyrosine-protein kinase BTK (PDB ID: 3GEN) the residue equivalent to CDK2 Asp86 is Cys481 and therefore there is the potential for a covalent adduct to be formed through this side chain. […]

MLK1 = MLK1 (Homo sapiens, UniProt P80192); conditions: MLK1, 1µM; read-out: %Remaining activity at 1µM NU6300
Description: as §1, §2, §3

JNK1 = JNK1 (Homo sapiens, UniProt P45983); conditions: JNK1, 1µM; read-out: %Remaining activity at 1µM NU6300
Description: as §1, §2, §3

CK1δ = CK1δ (Homo sapiens, UniProt P48730); conditions: read-out: %Remaining activity at 1µM NU6300
Description: as §1, §2, §3

CK1γ2 = CK1γ2 (Homo sapiens, UniProt P78368); conditions: CK1γ2, 1µM; read-out: %Remaining activity at 1µM NU6300
Description: as §1, §2, §3

JNK2 = JNK2 (Homo sapiens, UniProt P45984); conditions: JNK2, 1µM; read-out: %Remaining activity at 1µM NU6300
Description: as §1, §2, §3

CSK = CSK (Homo sapiens, UniProt P41240); conditions: read-out: %Remaining activity at 1µM NU6300
Description: as §1, §2, §3

EPH-A2 = EPH-A2 (Homo sapiens, UniProt P29317); conditions: EPH-A2, 1µM; read-out: %Remaining activity at 1µM NU6300
Description: as §1, §2, §3

EPH-B4 = EPH-B4 (Homo sapiens, UniProt P54760); conditions: EPH-B4, 1µM; read-out: %Remaining activity at 1µM NU6300
Description: as §1, §2, §3

MAPKAP-K3 = MAPKAP-K3 (Homo sapiens, UniProt Q16644); conditions: MAPKAP-K3, 1µM; read-out: %Remaining activity at 1µM NU6300
Description: as §1, §2, §3

DDR2 = DDR2 (Homo sapiens, UniProt Q16832); conditions: DDR2, 1µM; read-out: %Remaining activity at 1µM NU6300
Description: as §1, §2, §3

Aurora A = target: T2, Aurora A (Homo sapiens, UniProt O14965); conditions: read-out: %Remaining activity at 1µM NU6300
T2 sequence (O14965 1-403): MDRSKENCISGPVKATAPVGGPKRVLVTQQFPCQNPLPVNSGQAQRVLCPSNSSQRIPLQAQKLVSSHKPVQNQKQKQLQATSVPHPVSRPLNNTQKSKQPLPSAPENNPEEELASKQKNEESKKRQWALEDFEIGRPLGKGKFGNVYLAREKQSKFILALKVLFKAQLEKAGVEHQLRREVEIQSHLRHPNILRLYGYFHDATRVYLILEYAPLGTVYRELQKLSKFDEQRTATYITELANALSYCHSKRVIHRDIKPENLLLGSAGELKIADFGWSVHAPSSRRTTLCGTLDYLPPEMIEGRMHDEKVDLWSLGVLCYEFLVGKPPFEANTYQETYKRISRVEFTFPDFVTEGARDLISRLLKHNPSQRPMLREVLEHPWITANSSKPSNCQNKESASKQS
Description: as §1, §2, §3

CLK2 = CLK2 (Homo sapiens, UniProt P49760); conditions: CLK2, 1µM; read-out: %Remaining activity at 1µM NU6300
Description: as §1, §2, §3

JNK3 = JNK3 (Homo sapiens, UniProt P53779); conditions: JNK3, 1µM; read-out: %Remaining activity at 1µM NU6300
Description: as §1, §2, §3

MARK2 = MARK2 (Homo sapiens, UniProt Q7KZI7); conditions: MARK2, 1µM; read-out: %Remaining activity at 1µM NU6300
Description: as §1, §2, §3

IGF-1R = IGF-1R (Homo sapiens, UniProt P08069); conditions: read-out: %Remaining activity at 1µM NU6300
Description: as §1, §2, §3

CHK2 = CHK2 (Homo sapiens, UniProt O96017); conditions: CHK2, 1µM; read-out: %Remaining activity at 1µM NU6300
Description: as §1, §2, §3

Chain of MARK2 (Q7KZI7 whole entry): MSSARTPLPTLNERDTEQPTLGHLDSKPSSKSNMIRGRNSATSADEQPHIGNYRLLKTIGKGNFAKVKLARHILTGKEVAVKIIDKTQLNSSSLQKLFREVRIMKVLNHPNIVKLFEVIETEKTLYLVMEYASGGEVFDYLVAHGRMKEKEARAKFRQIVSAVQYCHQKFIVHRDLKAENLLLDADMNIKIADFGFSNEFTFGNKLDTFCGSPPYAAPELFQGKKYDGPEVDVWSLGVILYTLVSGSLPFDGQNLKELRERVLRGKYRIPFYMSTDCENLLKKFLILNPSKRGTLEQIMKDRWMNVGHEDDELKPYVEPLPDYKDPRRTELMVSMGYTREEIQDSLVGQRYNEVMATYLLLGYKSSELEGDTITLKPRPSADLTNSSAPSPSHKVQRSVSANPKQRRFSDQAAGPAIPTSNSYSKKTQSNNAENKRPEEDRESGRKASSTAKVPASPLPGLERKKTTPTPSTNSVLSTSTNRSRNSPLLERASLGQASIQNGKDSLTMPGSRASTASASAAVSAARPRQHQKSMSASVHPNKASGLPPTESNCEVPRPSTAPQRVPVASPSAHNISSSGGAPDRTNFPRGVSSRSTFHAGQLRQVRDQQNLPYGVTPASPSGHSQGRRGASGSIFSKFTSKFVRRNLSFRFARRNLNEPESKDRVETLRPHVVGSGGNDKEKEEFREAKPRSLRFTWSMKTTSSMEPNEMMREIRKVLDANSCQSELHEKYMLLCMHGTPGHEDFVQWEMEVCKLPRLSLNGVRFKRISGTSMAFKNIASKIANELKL
Chain of CK1δ (P48730 whole entry): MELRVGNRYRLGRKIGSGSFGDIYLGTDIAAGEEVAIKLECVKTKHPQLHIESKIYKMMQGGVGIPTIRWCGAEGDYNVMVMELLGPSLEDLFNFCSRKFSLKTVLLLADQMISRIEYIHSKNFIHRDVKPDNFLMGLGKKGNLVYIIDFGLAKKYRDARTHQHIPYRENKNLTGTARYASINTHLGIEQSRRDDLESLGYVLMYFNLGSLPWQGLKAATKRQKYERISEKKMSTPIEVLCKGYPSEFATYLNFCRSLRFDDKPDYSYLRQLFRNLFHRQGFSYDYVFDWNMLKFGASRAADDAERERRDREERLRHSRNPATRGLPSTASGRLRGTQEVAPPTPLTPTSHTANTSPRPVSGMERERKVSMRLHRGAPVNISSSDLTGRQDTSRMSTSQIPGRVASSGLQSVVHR
Chain of EPH-A2 (P29317 24-976): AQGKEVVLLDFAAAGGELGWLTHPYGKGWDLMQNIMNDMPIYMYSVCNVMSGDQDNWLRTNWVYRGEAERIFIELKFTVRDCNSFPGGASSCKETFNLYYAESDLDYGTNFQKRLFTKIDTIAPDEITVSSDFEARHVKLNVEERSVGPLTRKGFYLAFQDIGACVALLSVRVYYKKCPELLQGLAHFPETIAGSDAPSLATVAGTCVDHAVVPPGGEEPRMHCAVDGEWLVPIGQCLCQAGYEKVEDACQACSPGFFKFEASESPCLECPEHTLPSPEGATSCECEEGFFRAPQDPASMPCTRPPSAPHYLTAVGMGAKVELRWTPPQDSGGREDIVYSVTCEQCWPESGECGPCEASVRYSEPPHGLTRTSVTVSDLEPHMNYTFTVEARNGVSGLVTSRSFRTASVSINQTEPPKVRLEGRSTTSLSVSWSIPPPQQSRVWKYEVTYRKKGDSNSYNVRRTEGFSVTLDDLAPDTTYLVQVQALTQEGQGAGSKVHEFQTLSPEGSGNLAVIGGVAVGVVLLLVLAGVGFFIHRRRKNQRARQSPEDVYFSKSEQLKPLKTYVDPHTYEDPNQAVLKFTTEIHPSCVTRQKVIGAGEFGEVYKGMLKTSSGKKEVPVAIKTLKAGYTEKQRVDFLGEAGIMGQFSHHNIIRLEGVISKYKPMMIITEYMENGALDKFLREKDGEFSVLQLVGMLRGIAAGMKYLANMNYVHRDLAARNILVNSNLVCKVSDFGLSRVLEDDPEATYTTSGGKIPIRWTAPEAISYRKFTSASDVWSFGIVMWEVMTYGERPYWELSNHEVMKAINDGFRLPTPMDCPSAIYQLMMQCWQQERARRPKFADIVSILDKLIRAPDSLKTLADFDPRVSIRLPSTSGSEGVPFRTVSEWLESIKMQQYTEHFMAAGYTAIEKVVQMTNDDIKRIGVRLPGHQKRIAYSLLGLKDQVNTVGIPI
Chain of IGF-1R (P08069 31-1367): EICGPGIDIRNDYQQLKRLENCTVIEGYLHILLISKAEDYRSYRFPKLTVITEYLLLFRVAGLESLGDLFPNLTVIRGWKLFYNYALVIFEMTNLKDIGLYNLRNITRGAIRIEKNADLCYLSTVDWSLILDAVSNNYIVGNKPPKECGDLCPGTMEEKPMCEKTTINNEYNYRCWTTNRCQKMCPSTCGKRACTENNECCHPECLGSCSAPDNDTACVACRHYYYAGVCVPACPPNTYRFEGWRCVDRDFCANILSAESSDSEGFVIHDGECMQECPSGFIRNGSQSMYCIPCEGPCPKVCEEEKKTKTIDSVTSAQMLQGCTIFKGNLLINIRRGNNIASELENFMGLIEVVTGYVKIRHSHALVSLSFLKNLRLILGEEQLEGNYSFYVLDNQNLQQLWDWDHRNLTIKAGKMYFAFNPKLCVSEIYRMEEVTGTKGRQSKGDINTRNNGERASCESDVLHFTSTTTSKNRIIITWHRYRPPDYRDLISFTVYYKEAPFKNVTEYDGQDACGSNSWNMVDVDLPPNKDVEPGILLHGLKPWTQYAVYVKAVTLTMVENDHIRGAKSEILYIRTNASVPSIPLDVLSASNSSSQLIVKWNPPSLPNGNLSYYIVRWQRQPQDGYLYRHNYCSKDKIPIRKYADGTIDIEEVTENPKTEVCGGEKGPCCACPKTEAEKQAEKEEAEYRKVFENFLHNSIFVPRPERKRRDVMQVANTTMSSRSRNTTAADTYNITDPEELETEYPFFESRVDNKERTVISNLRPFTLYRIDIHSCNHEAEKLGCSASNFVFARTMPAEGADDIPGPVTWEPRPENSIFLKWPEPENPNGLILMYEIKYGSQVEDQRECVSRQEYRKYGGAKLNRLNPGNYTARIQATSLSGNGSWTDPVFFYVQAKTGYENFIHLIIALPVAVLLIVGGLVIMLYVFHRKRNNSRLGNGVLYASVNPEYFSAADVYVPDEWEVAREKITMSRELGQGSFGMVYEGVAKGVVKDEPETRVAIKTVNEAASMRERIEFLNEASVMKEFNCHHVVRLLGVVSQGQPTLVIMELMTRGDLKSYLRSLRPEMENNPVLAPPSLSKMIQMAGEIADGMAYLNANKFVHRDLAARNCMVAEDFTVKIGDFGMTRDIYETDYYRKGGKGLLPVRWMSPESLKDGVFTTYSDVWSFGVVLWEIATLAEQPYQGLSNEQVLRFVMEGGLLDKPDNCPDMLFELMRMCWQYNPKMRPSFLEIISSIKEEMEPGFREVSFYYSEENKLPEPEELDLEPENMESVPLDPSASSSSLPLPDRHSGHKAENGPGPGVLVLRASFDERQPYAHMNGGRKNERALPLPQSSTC
Chain of MAPKAP-K3 (Q16644 whole entry): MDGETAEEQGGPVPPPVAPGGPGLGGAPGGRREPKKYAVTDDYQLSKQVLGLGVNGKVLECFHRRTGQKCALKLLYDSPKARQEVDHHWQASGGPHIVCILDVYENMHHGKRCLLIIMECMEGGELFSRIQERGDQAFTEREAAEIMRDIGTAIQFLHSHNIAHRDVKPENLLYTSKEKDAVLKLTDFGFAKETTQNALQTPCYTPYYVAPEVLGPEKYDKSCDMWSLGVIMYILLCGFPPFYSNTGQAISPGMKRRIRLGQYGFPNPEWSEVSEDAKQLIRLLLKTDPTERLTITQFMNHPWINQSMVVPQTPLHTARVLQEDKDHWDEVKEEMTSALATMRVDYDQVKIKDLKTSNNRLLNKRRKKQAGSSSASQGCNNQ
Chain of CHK2 (O96017 whole entry): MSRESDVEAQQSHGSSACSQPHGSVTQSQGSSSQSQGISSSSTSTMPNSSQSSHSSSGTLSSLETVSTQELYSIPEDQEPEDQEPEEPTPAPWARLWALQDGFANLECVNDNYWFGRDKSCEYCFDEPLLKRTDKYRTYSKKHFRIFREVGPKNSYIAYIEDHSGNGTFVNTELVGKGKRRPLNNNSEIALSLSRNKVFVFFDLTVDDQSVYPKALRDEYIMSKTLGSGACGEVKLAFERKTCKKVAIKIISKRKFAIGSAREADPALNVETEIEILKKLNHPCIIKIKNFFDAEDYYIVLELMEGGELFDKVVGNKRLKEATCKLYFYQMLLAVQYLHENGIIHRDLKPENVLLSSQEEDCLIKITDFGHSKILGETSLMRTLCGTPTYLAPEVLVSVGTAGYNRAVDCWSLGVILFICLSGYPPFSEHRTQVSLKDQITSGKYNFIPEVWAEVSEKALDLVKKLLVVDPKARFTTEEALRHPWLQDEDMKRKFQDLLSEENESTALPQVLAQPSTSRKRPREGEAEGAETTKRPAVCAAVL
Chain of JNK1 (P45983 whole entry): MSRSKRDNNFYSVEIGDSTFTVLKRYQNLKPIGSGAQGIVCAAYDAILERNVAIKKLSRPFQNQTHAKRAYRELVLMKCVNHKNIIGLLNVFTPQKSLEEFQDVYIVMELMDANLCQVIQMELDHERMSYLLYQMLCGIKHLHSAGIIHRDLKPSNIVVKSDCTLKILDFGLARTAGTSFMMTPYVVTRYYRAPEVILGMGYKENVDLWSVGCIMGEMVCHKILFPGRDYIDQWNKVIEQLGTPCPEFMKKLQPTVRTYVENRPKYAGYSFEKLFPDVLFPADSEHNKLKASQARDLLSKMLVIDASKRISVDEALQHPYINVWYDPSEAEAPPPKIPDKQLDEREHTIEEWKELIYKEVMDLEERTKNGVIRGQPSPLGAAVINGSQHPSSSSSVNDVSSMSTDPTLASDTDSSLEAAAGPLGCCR

C=CS(=O)(=O)c1ccc(Nc2nc(OCC3CCCCC3)c3nc[nH]c3n2)cc1 [NU6300, 6-(cyclohexylmethoxy)-N-(4-(vinylsulfonyl)phenyl)-9H-purin-2-amine]
remaining activity at 1 µM (CHK1): 38% | remaining activity at 1 µM (MLK1): 8% | remaining activity at 1 µM (JNK1): 60% | remaining activity at 1 µM (CK1δ): 83% | remaining activity at 1 µM (CK1γ2): 79% | remaining activity at 1 µM (JNK2): 88% | remaining activity at 1 µM (CSK): 82% | remaining activity at 1 µM (EPH-A2): 91% | remaining activity at 1 µM (EPH-B4): 90% | remaining activity at 1 µM (MAPKAP-K3): 88% | remaining activity at 1 µM (DDR2): 60% | remaining activity at 1 µM (Aurora A): 18% | remaining activity at 1 µM (CLK2): 27% | remaining activity at 1 µM (JNK3): 37% | remaining activity at 1 µM (MARK2): 69% | remaining activity at 1 µM (IGF-1R): 79% | remaining activity at 1 µM (CHK2): 39%
